Assay results from patent US20060074073A1, “Therapeutic combinations comprising poly (ADP-ribose) polymerases inhibitor” (AGOURON PHARMACEUTICALS, INC., priority 2004, published 2006).
Several values for one entry are separate records, joined by “and”; a condition that tells them apart may be missing. Identical values can stand only once. Like-named read-outs stand apart in the source and are kept apart here. Marks after values point to notes of the source that are not given here.

Assays:
[1] = test system: PARP; test: PARP inhibition in tumor biopsies of patients; assay type: in vivo, human
Protocol: Whole blood was collected into EDTA vacutainers and human PBLs were obtained by lymphopreparation according to the manufacturers instructions. Tumour biopsies were collected from the operating theatre in a sterile container and placed immediately on ice. Within 30 minutes tumour samples were snap frozen in liquid nitrogen and stored at −80° C. until homogenised for analysis. The specimen was defrosted on ice and the wet weight documented. For weights over 100 mg the tissue was homogenised using a Pro 2000 instrument (Pro Scientific Inc, Monroe, Conn., USA) in 3 volumes (i.e. 1 mg plus 3 μl isotonic buffer −7 mM Hepes, 26 mM KCl, 0.1 mM dextran, 0.4 mM EGTA, 0.5 mM MgCl2, 45 mM sucrose, pH 7.8), giving a homogenate with an overall dilution of 1 in 4. Where smaller samples had been obtained they were homogenised in 99 or 999 volumes, giving final dilutions of 1 in 100 and 1 in 1000, respectively. The homogenate was kept on ice throughout the process, and homogenisation was performed in 10 second bursts to prevent undue warming of the sample. Unless assayed on the day of homogenisation, samples were re-frozen to −80° C. and stored at this temperature until analysed. Prior to assay the samples were further diluted with isotonic buffer where necessary to give a final dilution of 1 in 1000.
Tumour homogenates were assayed in a similar manner; however, the homogenisation process introduces sufficient DNA damage to maximally stimulate PARP activity and oligonucleotide was not therefore required. The protein concentration of the homogenate was measured using the BCA protein assay and Titertek Multiscan MCC/340 plate reader. Results can be expressed in terms of pmol PAR former per mg protein or per mg tumour.
A pharmacodynamic assay for PARP activity and inhibition uses monoclonal antibodies to measure the amount of PAR polymer that is formed under set conditions in permeabilized peripheral blood lymphocytes and homogenized tumor samples. The quantity of polymer formed can be used as a correlate for PARP activity, whereby decreasing polymer formation correlates with degree of PARP inhibition. PARP activity is expressed as a percentage of baseline, and is calculated by dividing the amount of PAR polymer formed after infusion by the quantity formed before infusion. The feasibility of this assay was successfully tested in the 12 patients Phase 2 study of single-agent temozolomide in patients with metastatic melanoma.
Using a pharmacodynamic assay for PARP activity disclosed in Section C above, PARP inhibition in peripheral blood lymphocytes and tumor tissue was assessed in a Phase 1 clinical trial. As indicated above, enrollment in the Phase 1 Part 2 study has been restricted to patients having metastatic melanoma with biopsiable disease. All patients have been required to consent to pre-treatment and post-treatment biopsies such that PARP activity in the tumor can be evaluated.

[2] = test system: A549 cells; test: Inhibition of cell growth and potentiation of temozolomide/topotecan, A549; assay type: cell-based; details: for GI50: Homo sapiens, 120 h, 5-day continuous exposure
[3] = test system: LoVo cells; test: Inhibition of cell growth and potentiation of temozolomide/topotecan, LoVo; assay type: cell-based
[4] = test system: SW620 cells; test: Inhibition of cell growth and potentiation of topotecan, SW620; assay type: cell-based, human
[5] = test system: PARP; test: Inhibition of MNNG-induced cellular NAD depletion and poly-ADP-ribose polymer formation in A549 cells; assay type: cell-based; details: for NAD (% DMSO) / Polymer (% MNNG): MNNG 25 μM
[6] = Human protein binding; assay type: in vitro ADME
Protocol: This value was determined from the target effect (IC89) for inhibition of cellular NAD^+ depletion and poly-ADP-ribose polymer formation and adjusted for protein binding. […] II. Pharmaceutical Combinations of the Present Invention and Their Use

[7] = in vivo; details: CD-1, mouse, iv, 5 mg/kg
Excerpt: (§1) Each of the dose treatment groups was split into 2 cohort groups of 4 mice. The reason for cohort blood sampling is due to the blood volume limitations of the mouse species. Blood was drawn from each cohort every other pharmacokinetic sampling time. […] Three mice per dose group were euthanized at each of the collection time points. […] Blood from each rat was collected for each time point.

[8] = IV pharmacokinetics in rats; details: Wistar, rat, in vivo, 5 mg/kg
Excerpt: as §1

[9] = IV pharmacokinetics in dogs; details: Beagle, in vivo, dog
[10] = test system: LoVo xenografts; test: Tumor growth delay with X-irradiation, LoVo xenografts; assay type: in vivo
Protocol: The experimental endpoint was defined to be the time required for relative tumor volume to increase to four times the volume measured at the start of treatment (RTV4). Growth delays were calculated from the difference in time taken to achieve RTV4 (days) between IR/Formula 1 treated tumors and untreated controls.

[11] = test system: LoVo xenografts; test: In vivo antitumor efficacy with temozolomide, LoVo xenograft
Excerpt: (§2) In no combination study was antagonism observed.

[12] = test system: SW620 xenograft; test: In vivo antitumor efficacy with irinotecan, SW620 xenograft; parameters: species or system mice; details: SW620, once weekly × 3
Excerpt: as §2

[13] = A549, compound 0.4 μM (Table 6)
[14] = 15 mg/kg single IV dose as glucuronate salt

## CNCc1ccc(-c2[nH]c3cc(F)cc4c3c2CCNC4=O)cc1.O=P(O)(O)O [Compound I, phosphate salt of 8-fluoro-2-{4-[(methylamino)methyl]phenyl}-1,3,4,5-tetrahydro-6H-azepino[5,4,3-cd]indol-6-one]
[1]; tumor biopsy 4-6 h, temozolomide 135 mg/m^2, Compound I 12 mg/m^2, day 1, individual patients
  % PARP Inhibition: 91%
[1]; tumor biopsy 4-6 h, temozolomide 135 mg/m^2, Compound I 12 mg/m^2, day 4, individual patients
  % PARP Inhibition: 85% and 50%
[1]; tumor biopsy 4-6 h, temozolomide 170 mg/m^2, Compound I 12 mg/m^2, day 1, individual patients
  % PARP Inhibition: 77% and 98%
[1]; tumor biopsy 4-6 h, temozolomide 170 mg/m^2, Compound I 12 mg/m^2, day 5, individual patients
  % PARP Inhibition: 93%
[1]; tumor biopsy 4-6 h, temozolomide 200 mg/m^2, Compound I 12 mg/m^2, day 1, individual patients
  % PARP Inhibition: 90% and 88%
[1]; tumor biopsy 4-6 h, temozolomide 200 mg/m^2, Compound I 18 mg/m^2, day 1, individual patients
  % PARP Inhibition: 98% and 94% and 89% and 97%
[1]; tumor biopsy 4-6 h post-treatment, temozolomide 100 mg/m^2, Compound I 4 mg/m^2, day 1, individual patients
  % PARP Inhibition: 79%
[1]; tumor biopsy at 24 hours post-treatment on day 1, temozolomide 200 mg/m^2, Compound I 18 mg/m^2
  % PARP Inhibition: 86%*

## CNCc1ccc(-c2[nH]c3cc(F)cc4c3c2CCNC4=O)cc1 [compound of formula 1, 8-fluoro-2-{4-[(methylamino)methyl]phenyl}-1,3,4,5-tetrahydro-6H-azepino[5,4,3-cd]indol-6-one]
[2]; A549, +0.4 μM compound of formula 1
  Topotecan PF50: 1.6
[2]; A549, GI50 temozolomide alone/GI50 temozolomide+0.4 μM compound of formula 1
  Temozolomide PF50: 3.5
[2]; A549, compound 0.0005 μM
  PF50 (Temozolomide): 1
  PF50 (Topotecan): 1.4
[2]; A549, compound 0.005 μM
  PF50 (Topotecan): 1.8
[2]; A549, compound 0.005 μM (5 nM)
  PF50 (Temozolomide): 1.3
[2]; A549, compound 0.05 μM
  PF50 (Topotecan): 2.1
[2]; A549, compound 0.1 μM
  PF50 (Temozolomide): 2.6
  PF50 (Topotecan): 2.2
[2]; [13]
  PF50 (Temozolomide): 3.5
  PF50 (Topotecan): 2.4
[2]; A549, LoVo and SW620 cell lines, read-out: GI50 values, range over cell lines
  GI50: 7 to 12 µM
[2]; A549, read-out: GI50
  GI50: 7 µM
[3]; +0.4 μM compound of formula 1
  Temozolomide PF50: 8 and 8.1
  Topotecan PF50: 1.6 and 1.7
[3]; Homo sapiens, 120 h, 5-day continuous exposure
  GI50: 12 µM
[4]; +0.4 μM compound of formula 1
  Topotecan PF50: 2.6
[4]; Homo sapiens, SW-620, 120 h, 5-day continuous exposure
  GI50: 11 µM
[5]; 50 nM
  inhibition of MNNG-induced NAD depletion: 93%
  inhibition of poly-ADP-ribose polymer formation: 95%
[5]; compound 0.0005 μM
  NAD (% DMSO): 77 % DMSO
  Polymer (% MNNG): 40 % MNNG
[5]; compound 0.005 μM
  NAD (% DMSO): 95 % DMSO
  Polymer (% MNNG): 11 % MNNG
[5]; compound 0.05 μM
  NAD (% DMSO): 96 % DMSO
  Polymer (% MNNG): 5 % MNNG
[5]; compound 0.1 μM
  NAD (% DMSO): 97 % DMSO
  Polymer (% MNNG): 4 % MNNG
[5]; compound 0.4 μM
  NAD (% DMSO): 97 % DMSO
  Polymer (% MNNG): 4 % MNNG
[5]; MNNG-induced, 5 nM
  inhibition of cellular poly-ADP-ribose formation: 89%
[6]; human, plasma, concentrations between 0.05 to 25 nM
  fraction unbound: 0.274
[6]; target effect IC89 in A549 cells
  plasma concentration from 5 nM target effect corrected for human protein binding: 5.9 ng/mL
[7]
  AUC(0-inf): 620 ng·h/mL
  Vd: 10 L/kg
  clearance: 136 mL/min/kg
  half-life: 2.3 h
[8]
  AUC(0-inf): 990 ng·h/mL
  Vd: 10 L/kg
  clearance: 85 mL/min/kg
  half-life: 2.8 h
[9]; 15 mg/kg single IV dose (free base) as glucuronate salt
  AUC(0-inf): 4100 ± 500 ng·h/mL
[9]; [14]
  clearance: 61.8 ± 8.2 mL/min/kg
  half-life: 4.5 ± 1.1 h
[9]; 15 mg/kg single IV dose as glucuronate salt, read-out: Vss
  Vd: 15.2 ± 2.3 L/kg
[10]; IR 2 Gy + 0.15 mg/kg i.p. 30 minutes before, daily × 5, 0.15 mg/kg
  Enhancement (%): 36% and 36^e %
[10]; IR 2 Gy + 15 mg/kg i.p. 30 minutes before, daily × 5, 15 mg/kg
  Enhancement (%): 36% and 36^f %

## CNCc1ccc(-c2[nH]c3cc(F)cc4c3c2CCNC4=O)cc1.O=C[C@H](O)[C@@H](O)[C@H](O)[C@H](O)C(=O)O [compound of formula 1 glucuronate salt]
[11]; LoVo experiment, any dose group
  body weight loss: No body weight loss
[11]; LoVo, temozolomide 68 mg/kg oral + 0.5 mg/kg i.p. (glucuronate salt), once daily for 5 days
  Enhancement (%): 67% and 67^f %
[12]; irinotecan 25 mg/kg i.p. + 0.05 mg/kg i.p. (glucuronate salt)
  Enhancement (%): 700%
[12]; irinotecan 25 mg/kg i.p. + 0.15 mg/kg i.p. (glucuronate salt)
  Enhancement (%): 1100^f %
[12]; irinotecan 25 mg/kg i.p. + 0.5 mg/kg i.p. (glucuronate salt)
  Enhancement (%): 1100^f %
